Assays:
Conditions in all cases: banded MIC grade
[1] = tested on: Aspergillus fumigatus; assay: Minimum inhibitory concentration, YAG medium; type: cell-based
Procedure, shortened: (§1)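 Testing uses spores harvested after 5 days on Sabouraud agar, grown 24 hrs at 35° C in glucose/ammonium chloride/yeast extract (YAG) medium against twofold drug dilutions. Optical density at 485 nm defines MIC as >70% growth reduction compared with drug-free wells.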

[2] = tested on: A. fumigatus 210; assay: Minimum inhibitory concentration, YAG medium; type: cell-based, Aspergillus fumigatus
Procedure, shortened: as §1

[3] = tested on: A. terreus 49; assay: Minimum inhibitory concentration, YAG medium; type: cell-based, Aspergillus terreus
Procedure, shortened: (§2)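 Twofold aqueous dilution series, prepared from a DMSO stock (5 mg/mL), were inoculated with Aspergillus spp. spores; incubation lasted 24 hrs at 35° C before OD 485 nm readings.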

[4] = tested on: Aspergillus flavus; assay: Minimum inhibitory concentration, YAG medium; type: cell-based
Procedure, shortened: as §2

[5] = tested on: Aspergillus niger; assay: Minimum inhibitory concentration, YAG medium; type: cell-based
Procedure, shortened: as §2

[6] = tested on: Aspergillus terreus; assay: Minimum inhibitory concentration, YAG medium; type: cell-based
Procedure, shortened: as §2

[7] = tested on: C. albicans; assay: Minimum inhibitory concentration, RPMI medium; type: cell-based
Procedure, shortened: (§3)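 Incubated at 35° C for 24-48 hrs in RPMI 1640 with twofold water dilutions of compound (from 5 mg/mL stock in DMSO); absorbance at 485 nm indicated growth.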

[8] = tested on: C. parapsilosis; assay: Minimum inhibitory concentration, RPMI medium; type: cell-based
Procedure, shortened: as §3

[9] = tested on: C. tropicalis; assay: Minimum inhibitory concentration, RPMI medium; type: cell-based
Procedure, shortened: as §3

SMILES	MIC grade, A. FUMIGATUS, YAG media [1]	MIC grade, A. FUMIGATUS 210, YAG media [2]	MIC grade, A. TERREUS 49, YAG media [3]	MIC grade, A. FLAVUS, YAG media [4]	MIC grade, A. NIGER, YAG media [5]	MIC grade, A. TERREUS, YAG media [6]	MIC grade, C. ALBICANS, RPMI media [7]	MIC grade, C. PARAPSILOSIS, RPMI media [8]	MIC grade, C. TROPICALIS, RPMI media [9]
CCCCc1ccc(OCCCCCC2=NN=C(N)SC2)cc1	1 (1: ≥5 mg/L)	2 (2: 1-5 mg/L)	2 (2: 1-5 mg/L)	2 (2: 1-5 mg/L)	3 (3: 0.2-1 mg/L)	2 (2: 1-5 mg/L)	2 (2: 5-20 mg/L)	3 (3: 1-5 mg/L)	2 (2: 5-20 mg/L)
CCc1ccc(OCCCCCC2=NN=C(N)SC2)cc1	3 (3: 0.2-1 mg/L)	3 (3: 0.2-1 mg/L)	4 (4: <0.2 mg/L)	4 (4: <0.2 mg/L)	4 (4: <0.2 mg/L)	4 (4: <0.2 mg/L)	4 (4: <1 mg/L)	4 (4: <1 mg/L)	4 (4: <1 mg/L)
Cc1cccc(C2=NN=C(N)SC2)c1	1 (1: ≥5 mg/L)	1 (1: ≥5 mg/L)	2 (2: 1-5 mg/L)	1 (1: ≥5 mg/L)	2 (2: 1-5 mg/L)	2 (2: 1-5 mg/L)	1 (1: ≥20 mg/L)	1 (1: ≥20 mg/L)	1 (1: ≥20 mg/L)
Cc1ccc(C2=NN=C(N)SC2)cc1	3 (3: 0.2-1 mg/L)	3 (3: 0.2-1 mg/L)	3 (3: 0.2-1 mg/L)	3 (3: 0.2-1 mg/L)	3 (3: 0.2-1 mg/L)	2 (2: 1-5 mg/L)	1 (1: ≥20 mg/L)	2 (2: 5-20 mg/L)	1 (1: ≥20 mg/L)
CCC(=O)OCC1=NN=C(N)SC1	3 (3: 0.2-1 mg/L)	3 (3: 0.2-1 mg/L)	3 (3: 0.2-1 mg/L)	3 (3: 0.2-1 mg/L)	3 (3: 0.2-1 mg/L)	3 (3: 0.2-1 mg/L)	1 (1: ≥20 mg/L)	3 (3: 1-5 mg/L)	2 (2: 5-20 mg/L)
NC1=NN=C(CC(=O)OCc2ccccc2)CS1	1 (1: ≥5 mg/L)	1 (1: ≥5 mg/L)	2 (2: 1-5 mg/L)	1 (1: ≥5 mg/L)	2 (2: 1-5 mg/L)	2 (2: 1-5 mg/L)	1 (1: ≥20 mg/L)	2 (2: 5-20 mg/L)	1 (1: ≥20 mg/L)
CCOC(=O)CC1=NN=C(N)SC1	2 (2: 1-5 mg/L)	2 (2: 1-5 mg/L)	3 (3: 0.2-1 mg/L)	2 (2: 1-5 mg/L)	3 (3: 0.2-1 mg/L)	3 (3: 0.2-1 mg/L)	3 (3: 1-5 mg/L)	3 (3: 1-5 mg/L)	2 (2: 5-20 mg/L)
COC(=O)CC1=NN=C(N)SC1	2 (2: 1-5 mg/L)	2 (2: 1-5 mg/L)	2 (2: 1-5 mg/L)	2 (2: 1-5 mg/L)	2 (2: 1-5 mg/L)	2 (2: 1-5 mg/L)	1 (1: ≥20 mg/L)	2 (2: 5-20 mg/L)	1 (1: ≥20 mg/L)

Reference: patent US20180201592A1, “2-AMINO-1,3,4-THIADIAZINE AND 2-AMINO-1,3,4-OXADIAZINE BASED ANTIFUNGAL AGENTS” (F2G Limited, priority 2015, published 2018)
